From PubChem BioAssay AID743059 (The Scripps Research Institute Molecular Screening Center, 2013)
Activity calls are given as the source filed them.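 Rule for the calls: active = EC50 at or below 10 µM; inactive = EC50 above 10 µM.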

Molecular target: Nuclear hormone receptor DAF-12 (Heterodera glycines)
Test: hgDAF-12 reporter activation EC50 – cell-based, luminescence, HEK293, dose response (AID 743059);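 note: agonist potency for compounds that raise hgDAF-12 reporter luminescence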
Conditions: HEK293 hgDAF-12 reporter, luciferase luminescence

EC50: > 67.6 µM (inactive)
Structure (SMILES): C/C(=N/OCc1ccc(Br)cc1)c1ccccn1
